These are literature values, as cited in patent US6750064B2, “Methods of screening for possible solid forms” (S.S.C.I. Inc., priority 2000, dated 2004).

The conditions of the series: two hours after the drug was administered.

For the compound `CO[C@@H]1[C@@H](OC(N)=O)[C@@H](O)[C@H](Oc2ccc3c(O)c(NC(=O)c4ccc(O)c(CC=C(C)C)c4)c(=O)oc3c2C)OC1(C)C` [crystalline novobiocin, novobiocin], the “concentration of novobiocin in dog plasma” value is “no drug detectable”.

Turning to `CO[C@@H]1[C@@H](OC(N)=O)[C@@H](O)[C@H](Oc2ccc3c(O)c(NC(=O)c4ccc(O)c(CC=C(C)C)c4)c(=O)oc3c2C)OC1(C)C` [novobiocin amorphous form, novobiocin], the concentration of novobiocin in dog plasma was 29300 ng/mL.
